Data as given in PubChem BioAssay (NCI).
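Assay format: 96-well plates, 48-hour exposure. At the GI50, growth is halved. TGI marks complete inhibition of growth.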

Key:
Assay in all cases: inhibition of tumour cell growth, NCI panel, 48 h
MOLT-4 leukemia = test system: MOLT-4 leukemia
HCC-2998 colon = test system: HCC-2998 colon
CCRF-CEM leukemia = test system: CCRF-CEM leukemia
SF-268 CNS = test system: SF-268 CNS
MCF7 breast = test system: MCF7 breast
COLO 205 colon = test system: COLO 205 colon
KM12 colon = test system: KM12 colon
TK-10 renal = test system: TK-10 renal
OVCAR-3 ovarian = test system: OVCAR-3 ovarian
SN12C renal = test system: SN12C renal
SF-539 CNS = test system: SF-539 CNS
SR leukemia = test system: SR leukemia
BT-549 breast = test system: BT-549 breast
IGROV1 ovarian = test system: IGROV1 ovarian
HL-60(TB) leukemia = test system: HL-60(TB) leukemia
HCT-116 colon = test system: HCT-116 colon
A549 NSCLC = test system: A549 NSCLC
HT29 colon = test system: HT29 colon
HCT-15 colon = test system: HCT-15 colon
HS 578T breast = test system: HS 578T breast
A498 renal = test system: A498 renal
T-47D breast = test system: T-47D breast
UACC-257 melanoma = test system: UACC-257 melanoma
SF-295 CNS = test system: SF-295 CNS
OVCAR-5 ovarian = test system: OVCAR-5 ovarian
LOX IMVI melanoma = test system: LOX IMVI melanoma
OVCAR-4 ovarian = test system: OVCAR-4 ovarian
ACHN renal = test system: ACHN renal
SNB-19 CNS = test system: SNB-19 CNS
SK-MEL-2 melanoma = test system: SK-MEL-2 melanoma
K-562 leukemia = test system: K-562 leukemia
MDA-MB-231 breast = test system: MDA-MB-231 breast
MDA-MB-435 = test system: MDA-MB-435
NCI-H522 lung = test system: NCI-H522 lung
OVCAR-8 ovarian = test system: OVCAR-8 ovarian
SW-620 colon = test system: SW-620 colon
DU-145 prostate = test system: DU-145 prostate
MALME-3M melanoma = test system: MALME-3M melanoma
EKVX NSCLC = test system: EKVX NSCLC
PC-3 prostate = test system: PC-3 prostate
NCI/ADR-RES ovarian = test system: NCI/ADR-RES ovarian
HOP-62 NSCLC = test system: HOP-62 NSCLC
RXF 393 renal = test system: RXF 393 renal
M14 melanoma = test system: M14 melanoma
NCI-H23 lung = test system: NCI-H23 lung
NCI-H226 lung = test system: NCI-H226 lung
NCI-H460 lung = test system: NCI-H460 lung
RPMI-8226 leukemia = test system: RPMI-8226 leukemia
U251 CNS = test system: U251 CNS
SK-OV-3 ovarian = test system: SK-OV-3 ovarian
SK-MEL-5 melanoma = test system: SK-MEL-5 melanoma
HOP-92 NSCLC = test system: HOP-92 NSCLC
SK-MEL-28 melanoma = test system: SK-MEL-28 melanoma
UACC-62 melanoma = test system: UACC-62 melanoma
MDA-MB-468 breast = test system: MDA-MB-468 breast
UO-31 renal = test system: UO-31 renal
786-0 renal = test system: 786-0 renal
SNB-75 CNS = test system: SNB-75 CNS
CAKI-1 renal = test system: CAKI-1 renal

## O=C(N=Nc1c(O)[nH]c2ccc(Cl)cc12)c1ccc2nc(-c3ccc(Cl)cc3)[nH]c2c1
MOLT-4 leukemia
  GI50: 1.42 µM
  TGI: 16.5 µM
HCC-2998 colon
  GI50: 3.4 µM
  TGI: > 57.7 µM
CCRF-CEM leukemia
  GI50: 0.969 µM
  TGI: 4.39 µM
SF-268 CNS
  GI50: 1.78 µM
  TGI: 10.6 µM
MCF7 breast
  GI50: 1.39 µM
  TGI: > 57.7 µM
COLO 205 colon
  GI50: 2.27 µM
  TGI: 10.5 µM
KM12 colon
  GI50: > 57.7 µM
  TGI: > 57.7 µM
TK-10 renal
  GI50: 40.9 µM
  TGI: > 57.7 µM
OVCAR-3 ovarian
  GI50: 5.2 µM
  TGI: > 57.7 µM
SN12C renal
  GI50: 2.53 µM
  TGI: 33.2 µM
SF-539 CNS
  GI50: 2.11 µM
  TGI: 8.18 µM
SR leukemia
  GI50: 3.29 µM
  TGI: > 57.7 µM
BT-549 breast
  GI50: 7.12 µM
  TGI: 25.8 µM
IGROV1 ovarian
  GI50: 3.64 µM
  TGI: > 57.7 µM
HL-60(TB) leukemia
  GI50: 10.1 µM
  TGI: > 57.7 µM
HCT-116 colon
  GI50: 2.35 µM
  TGI: > 57.7 µM
A549 NSCLC
  GI50: 29 µM
  TGI: > 57.7 µM
HT29 colon
  GI50: 2.33 µM
  TGI: > 57.7 µM
HCT-15 colon
  GI50: > 57.7 µM
  TGI: > 57.7 µM
HS 578T breast
  GI50: 2.67 µM
  TGI: 41.3 µM
A498 renal
  GI50: 18.4 µM
  TGI: 57 µM
T-47D breast
  GI50: 2 µM
  TGI: 44.3 µM
UACC-257 melanoma
  GI50: 40 µM
  TGI: > 57.7 µM
SF-295 CNS
  GI50: 2.97 µM
  TGI: 20.2 µM
OVCAR-5 ovarian
  GI50: 3.5 µM
  TGI: > 57.7 µM
LOX IMVI melanoma
  GI50: 1.07 µM
  TGI: 2.32 µM
OVCAR-4 ovarian
  GI50: 1.98 µM
  TGI: 18.8 µM
ACHN renal
  GI50: 23.5 µM
  TGI: > 57.7 µM
SNB-19 CNS
  GI50: 2.05 µM
  TGI: 10.7 µM
SK-MEL-2 melanoma
  GI50: 41.5 µM
  TGI: > 57.7 µM
K-562 leukemia
  GI50: 1.62 µM
  TGI: > 57.7 µM
MDA-MB-231 breast
  GI50: 1.51 µM
  TGI: 4.74 µM
MDA-MB-435
  GI50: 2.05 µM
  TGI: 13.3 µM
NCI-H522 lung
  GI50: 3.73 µM
  TGI: 27.2 µM
OVCAR-8 ovarian
  GI50: 4.42 µM
  TGI: > 57.7 µM
SW-620 colon
  GI50: 1.91 µM
  TGI: > 57.7 µM
DU-145 prostate
  GI50: 3.74 µM
  TGI: > 57.7 µM
MALME-3M melanoma
  GI50: 2.27 µM
  TGI: 10.9 µM
EKVX NSCLC
  GI50: 16.6 µM
  TGI: > 57.7 µM
PC-3 prostate
  GI50: 7.5 µM
  TGI: > 57.7 µM
NCI/ADR-RES ovarian
  GI50: > 57.7 µM
  TGI: > 57.7 µM
HOP-62 NSCLC
  GI50: 6.93 µM
  TGI: 24 µM
RXF 393 renal
  GI50: 2.99 µM
  TGI: 19.4 µM
M14 melanoma
  GI50: 3.82 µM
  TGI: > 57.7 µM
NCI-H23 lung
  GI50: 2.22 µM
  TGI: 9.84 µM
NCI-H226 lung
  GI50: 13.7 µM
  TGI: > 57.7 µM
NCI-H460 lung
  GI50: 2.38 µM
  TGI: > 57.7 µM
RPMI-8226 leukemia
  GI50: > 57.7 µM
  TGI: > 57.7 µM
U251 CNS
  GI50: 1.75 µM
  TGI: 6.46 µM
SK-OV-3 ovarian
  GI50: 15.5 µM
  TGI: > 57.7 µM
SK-MEL-5 melanoma
  GI50: > 57.7 µM
  TGI: > 57.7 µM
HOP-92 NSCLC
  GI50: 8.67 µM
  TGI: 39 µM
SK-MEL-28 melanoma
  GI50: 6.25 µM
  TGI: 49.7 µM
UACC-62 melanoma
  GI50: 4.64 µM
  TGI: 26.6 µM
MDA-MB-468 breast
  GI50: 1.4 µM
  TGI: 4.88 µM
UO-31 renal
  GI50: > 57.7 µM
  TGI: > 57.7 µM
786-0 renal
  GI50: 3.08 µM
  TGI: 21.2 µM
SNB-75 CNS
  GI50: 1.74 µM
  TGI: 14 µM
CAKI-1 renal
  GI50: > 57.7 µM
  TGI: > 57.7 µM
